Assay results reported in PubChem BioAssay (NCI).
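1) Cells in 96-well plates. 2) Compound, 48 h, 5 concentrations. 3) Linear interpolation between surrounding doses. 4) Unreached endpoint = highest concentration. TGI denotes the concentration required for complete inhibition of growth.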

Columns and labels:
Experiment in all cases: growth of human tumour cells (NCI), 48 h
COLO 205 colon = tested on: COLO 205 colon
NCI/ADR-RES ovarian = tested on: NCI/ADR-RES ovarian
RXF 393 renal = tested on: RXF 393 renal
SR leukemia = tested on: SR leukemia
CCRF-CEM leukemia = tested on: CCRF-CEM leukemia
HCT-116 colon = tested on: HCT-116 colon
HS 578T breast = tested on: HS 578T breast
HCT-15 colon = tested on: HCT-15 colon
SF-539 CNS = tested on: SF-539 CNS
K-562 leukemia = tested on: K-562 leukemia

Row | SMILES | TGI (COLO 205 colon) | TGI (NCI/ADR-RES ovarian) | TGI (RXF 393 renal) | TGI (SR leukemia) | TGI (CCRF-CEM leukemia) | TGI (HCT-116 colon) | TGI (HS 578T breast) | TGI (HCT-15 colon) | TGI (SF-539 CNS) | TGI (K-562 leukemia)
1 | CC(=N\N=C\c1ccccn1)/C(C)=N/N=C(C)/C(C)=N/N=C(C)/C(C)=N/N=C/c1ccccn1 | > 100 µM | > 100 µM | > 100 µM | > 100 µM | > 100 µM | > 100 µM | > 100 µM | > 100 µM | > 100 µM | > 100 µM
2 | O=C(OCc1ccccc1)N1c2cc([N+](=O)[O-])ccc2C(=O)N2CCC[C@H]2C1O (some centres not stated) | > 100 µM | > 100 µM | > 100 µM | > 100 µM | > 100 µM | > 100 µM | > 100 µM | > 100 µM | > 100 µM | > 100 µM
3 | CC(C)C(C/C=C1\CC(CO)(COC(=O)CC(C(C)C)C(C)C)OC1=O)C(C)C (configuration not stated) | 9.75 µM | 31.8 µM | 28.4 µM | 31.6 µM | 36.2 µM | 27.8 µM | 15.8 µM | 34.9 µM | 33 µM | 19.6 µM
4 | CC[C@@H]1CC[C@@H]2[C@H](CC[C@]3(C)[C@@H](OS(=O)(=O)c4ccc(C)cc4)CC[C@@H]23)[C@H]1CO | > 100 µM | > 100 µM | > 100 µM | > 100 µM | > 100 µM | > 100 µM | > 100 µM | > 100 µM | > 100 µM | > 100 µM
5 | O=C1C(N=Nc2ccc(-c3nc4ccccc4[nH]3)cc2)NC(=S)N1c1ccccc1 (configuration not stated) | > 100 µM | > 100 µM | 47.3 µM | 15.3 µM | 56 µM | > 100 µM | > 100 µM | 43.8 µM | > 100 µM | 35.8 µM
6 | CCOC(=O)C(C)c1nc2cc(N3CCN(C)CC3)c(F)cc2[nH]c1=O (configuration not stated) | > 100 µM | > 100 µM | > 100 µM | > 100 µM | > 100 µM | > 100 µM | > 100 µM | > 100 µM | > 100 µM | > 100 µM
7 | NCCCCNC1(c2cc3ccccc3s2)CCCCC1 | 3.5 µM | 21.2 µM | 14.9 µM | 3.58 µM | 5.44 µM | 14.9 µM | 20.4 µM | 17.7 µM | 4.59 µM | 3.56 µM
8 | CCOC(=O)N(C)C1(c2ccccc2)CCN(CCCC(=O)c2ccc(F)cc2)CC1 | 29.7 µM | > 100 µM | > 100 µM | 45.8 µM | > 100 µM | > 100 µM | > 100 µM | > 100 µM | 65.7 µM | 72.7 µM
9 | O=c1[nH]c2ccccc2c2oc(-c3ccccc3)nc12 | 37.6 µM | > 100 µM | 44 µM | 70.7 µM | 52.6 µM | 69.3 µM | 71.9 µM | > 100 µM | > 100 µM | > 100 µM
10 | NC(=O)NCCCC(NC(=O)OCCCCCn1ccc(=O)[nH]c1=O)C(=O)O (configuration not stated) | > 100 µM | > 100 µM | > 100 µM | > 100 µM | > 100 µM | > 100 µM | > 100 µM | > 100 µM | > 100 µM | > 100 µM
11 | COC(=O)CCN(CCC(=O)OC)C1CC1 | > 100 µM | > 100 µM | > 100 µM | > 100 µM | > 100 µM | > 100 µM | > 100 µM | > 100 µM | > 100 µM | > 100 µM
12 | Cc1cc(N=C2C=C(Nc3cc(C)on3)C(=O)c3ccccc32)no1 | > 88.3 µM | > 100 µM | > 65.9 µM | > 100 µM | > 100 µM | > 100 µM | > 100 µM | > 100 µM | > 59.7 µM | > 100 µM
13 | CN(C)CCn1c(=O)c2ccc3c4c(nn3CCN(C)C)c3ccccc3n(c1=O)c24 | 0.985 µM | 2.58 µM | 1.26 µM | 1.85 µM | 10.9 µM | 2.22 µM | 12.5 µM | 1.39 µM | 2.2 µM | 2.49 µM
14 | CC(=O)OCC1OC(c2nnc(C)o2)=CC(OC(C)=O)C1OC(C)=O (configuration not stated) | > 100 µM | > 100 µM | > 100 µM | > 100 µM | > 100 µM | > 100 µM | > 100 µM |  | > 100 µM | > 100 µM
15 | Nc1c(S(=O)(=O)O)cc(Nc2cccc(S(=O)(=O)/C=C/S(=O)(=O)O)c2)c2c1C(=O)c1ccccc1C2=O | > 100 µM | > 100 µM | > 100 µM | > 100 µM | > 100 µM | > 100 µM | > 100 µM | > 100 µM | > 100 µM | > 100 µM
16 | CN(C)CCOC1(CC2CCCCC2)CCC(C(C)(C)C)CC1 (configuration not stated) | 6.13 µM | 23.8 µM | 8.96 µM | 4.57 µM | 7.62 µM | 14.7 µM | 23.4 µM | 13.4 µM | 10.6 µM | 5.93 µM
17 | O=[N+]([O-])c1ccc(Cl)cc1C=NC12CC3CC(CC(C3)C1)C2 | 97.5 µM | > 86.9 µM | 97.6 µM | 26.4 µM | 35.6 µM | 62.9 µM | > 92.6 µM | > 100 µM | > 86.7 µM | 43 µM
18 | CC1CCC2(CC1)N=C1CCC(C)CC1C1(CCC(C)CC1)N2 (configuration not stated) | > 100 µM | > 100 µM | > 100 µM | > 100 µM | > 100 µM | > 100 µM | > 100 µM | > 100 µM | > 100 µM | > 100 µM
19 | Cc1c(F)c(N)c2c(=O)cc(-c3ccc(NC(=O)C(N)CCCN=C(N)N)c(F)c3)oc2c1F (configuration not stated) | > 100 µM | > 100 µM | 59.3 µM | > 100 µM | > 100 µM | > 100 µM | 71.9 µM | > 100 µM | 40.7 µM | > 100 µM
20 | CN(c1ccccc1Cl)S(=O)(=O)c1ccccc1[N+](=O)[O-] | > 100 µM | 95.9 µM | 90 µM | > 100 µM | > 100 µM | > 100 µM | > 100 µM | > 100 µM | > 100 µM | > 100 µM
21 | CCOC(=O)C(=Cn1c(=S)[nH]c2ccc([N+](=O)[O-])cc21)C(=O)OCC | > 100 µM | > 100 µM | > 100 µM | > 100 µM | > 100 µM | > 100 µM | > 100 µM |  | > 100 µM | > 100 µM
22 | COc1cc2c(cc1Cl)n([O-])c(C#N)c(N1CCN(c3ccc([N+](=O)[O-])cc3)CC1)[n+]2=O | > 100 µM | > 100 µM | > 100 µM | > 30.7 µM | > 100 µM | > 100 µM | > 57.5 µM | > 100 µM | 44.3 µM | > 100 µM
23 | CCOc1cc(C2SCC(=O)N2c2nc3cc4sc(N5C(=O)CSC5c5ccc(O)c(OCC)c5)nc4cc3s2)ccc1O (configuration not stated) | > 100 µM | > 100 µM | > 100 µM | > 100 µM | > 84.2 µM | > 100 µM | > 100 µM | > 100 µM | > 100 µM | > 100 µM
24 | CCOC(=O)C(NCc1cccc(C(F)(F)F)c1)(NC(=O)c1ccccc1)C(F)(F)F (configuration not stated) | 29.9 µM | 84.5 µM | 72.1 µM | > 100 µM | > 100 µM | > 100 µM | > 100 µM | > 100 µM | > 100 µM | > 100 µM
25 | Cc1cccc2c1C/C(=C\c1cccc(C)c1C(=O)O)C2=O | > 100 µM | > 100 µM | > 100 µM | > 100 µM | > 100 µM | > 100 µM | > 100 µM | > 100 µM | > 100 µM | > 100 µM
26 | C#CCOC(=O)C(N)CCCN=C(N)N (configuration not stated) | > 100 µM | > 100 µM | > 100 µM | > 100 µM | > 100 µM | > 100 µM | > 100 µM | > 100 µM | > 100 µM | 
27 | COc1ccc(C2(C3c4cc(OC)c(OC)cc4CCN3C)SCCCS2)cc1O (configuration not stated) | > 100 µM | > 100 µM | > 100 µM | > 100 µM | > 100 µM | > 100 µM | > 100 µM | > 100 µM | > 100 µM | > 100 µM
28 | N#Cc1nc(/C=C/c2ccccc2)oc1N | > 100 µM | > 100 µM | > 100 µM | 2.9 µM | > 100 µM | > 100 µM | > 100 µM | > 100 µM | > 100 µM | > 100 µM
